# Test results as given in ChEMBL document CHEMBL6177980 (J Med Chem, 2025).
# Calls of active or inactive are those of the source. The calls are words filed in the database; no cut-off is given here.
# Assays:
# A549 = test: Cytotoxicity against human A549 cells up to 100 uM; format: toxicity, cell-based; details: a549, 100 µM
# [1] = Oral bioavailability in fasted Cynomolgus monkey administered orally by LC-MS/MS analysis; format: ADME, organism-based, Macaca fascicularis; details: in vivo
# [2] = Prodrug conversion in Beagle dog plasma assessed as parent nucleoside metabolite formation administered orally or intravenously; format: ADME, cell-free, Canis lupus familiaris; details: po
# [3] = Prodrug conversion in Sprague-Dawley rat assessed as half life of 4'-Fluorouridine metabolite treated orally or intravenously by LC-MS/MS analysis; format: ADME; details: in vivo, po
# [4] = Stability in SIF assessed as compound degradation measured for 24 hrs by HPLC analysis; format: physicochemical; details: simulated intestinal fluid (SIF), read-out: Drug degradation
# [5] = Prodrug conversion in Sprague-Dawley rat assessed as AUC (0 to t) of 4'-Fluorouridine metabolite at 6 mg/kg, po by LC-MS/MS analysis; format: ADME, organism-based; details: in vivo
# [6] = Stability in C57BL/6J mouse plasma administered orally or intravenously; format: ADME, cell-free; details: po
# [7] = Prodrug conversion in Beagle dog assessed as AUC (0 to t) of 4'-Fluorouridine metabolite at 3 mg/kg/day, po treated for 7 days by LC-MS/MS analysis; format: ADME, organism-based, Canis lupus familiaris; details: in vivo, 168 h, time 7 day
# [8] = Cmax in fasted Cynomolgus monkey at 11.6 mg/kg, po by LC-MS/MS analysis; format: ADME, organism-based, Macaca fascicularis; details: in vivo
# [9] = Prodrug conversion in Sprague-Dawley rat assessed as 4'-Fluorouridine-NTP metabolite formation in brain at 6 mg/kg, po measured for 0.5 to 24 hrs by LC-MS/MS analysis; format: ADME, organism-based; details: in vivo, time 0.5-24 hrs
# [10] = tested on: Mammarenavirus choriomeningitidis; test: In vivo antiviral activity against LCMV infected in C57BL/6-Prf1tm1Sdz/J mouse assessed as improvement in splenic tissue lesion at 1 to 5 mg/kg, po qd for 7 days; format: functional, organism-based; details: dose 1-5 mg/kg, time 7.0 day
# [11] = Prodrug conversion in C57BL/6J mouse assessed as Cmax of 4'-Fluorouridine metabolite at 20 mg/kg, po by LC-MS/MS analysis; format: ADME, organism-based; details: in vivo
# [12] = Stability of compound at pH 4.0 assessed as change in purity at 1 mg/ml incubated for 24 hrs by HPLC analysis; format: physicochemical; details: buffer, pH 4, 24 h
# [13] = Prodrug conversion in Beagle dog assessed as AUC (0 to t) of 4'-Fluorouridine metabolite at 3 mg/kg, po by LC-MS/MS analysis; format: ADME, organism-based, Canis lupus familiaris; details: in vivo
# [14] = Prodrug conversion in Beagle dog assessed as Cmax of 4'-Fluorouridine metabolite at 10 mg/kg, po by LC-MS/MS analysis; format: ADME, organism-based, Canis lupus familiaris; details: in vivo
# [15] = Stability in Sprague-Dawley rat plasma administered orally or intravenously; format: ADME, cell-free; details: po
# [16] = Prodrug conversion in Sprague-Dawley rat assessed as 4'-Fluorouridine metabolite formation in brain at 6 mg/kg, po measured for 0.5 to 24 hrs by LC-MS/MS analysis; format: ADME, organism-based; details: in vivo, time 0.5-24 hrs
# [17] = Prodrug conversion in Sprague-Dawley rat assessed as 4'-Fluorouridine metabolite formation in kidney at 6 mg/kg, po measured for 0.5 to 24 hrs by LC-MS/MS analysis; format: ADME, organism-based; details: in vivo, time 0.5-24 hrs
# [18] = Prodrug conversion in Sprague-Dawley rat assessed as AUC (0 to t) of 4'-Fluorouridine metabolite at 20 mg/kg, po by LC-MS/MS analysis; format: ADME, organism-based; details: in vivo
# [19] = Prodrug conversion in Sprague-Dawley rat plasma assessed as parent nucleoside metabolite formation administered orally or intravenously; format: ADME, cell-free; details: po
# HepG2 = test: Mitochondrial toxicity in human HepG2 cells cultured in galactose containing medium at 100 uM; format: cell-based; details: hepg2, 100 µM
# [20] = Prodrug conversion in Sprague-Dawley rat assessed as 4'-Fluorouridine metabolite formation in thymus at 6 mg/kg, po measured for 0.5 to 24 hrs by LC-MS/MS analysis; format: ADME, organism-based; details: in vivo, time 0.5-24 hrs
# [21] = Prodrug conversion in Sprague-Dawley rat assessed as 4'-Fluorouridine-NTP metabolite formation in lung at 6 mg/kg, po measured for 0.5 to 24 hrs by LC-MS/MS analysis; format: ADME, organism-based; details: in vivo, time 0.5-24 hrs
# [22] = Prodrug conversion in Sprague-Dawley rat liver microsomes assessed as parent nucleoside metabolite formation at 1 uM measured up to 60 mins in presence of BNPP/NADPH/UDPGA by LC-MS/MS analysis; format: ADME, Microsome; details: 1 h
compound,measurement,setting,value
CC(C)C(=O)OC[C@@]1(F)O[C@@H](n2ccc(=O)n(COC(=O)c3cccnc3)c2=O)[C@H](OC(=O)C(C)C)[C@@H]1OC(=O)C(C)C,Activity,A549,Non-toxic
same,bioavailability,[1],75.2%
same,Drug metabolism,[2],metabolite_detected
same,t1/2,[3],15 h
same,degraded at 24 h,[4],< 5%
same,AUCt,[5],3023 ng·h/mL
same,Stability,[6],Unstable
same,AUCt,[7],1249 ng·h/mL
same,Cmax,[8],2390 ng/mL
same,Drug metabolism,[9],metabolite_detected
same,Activity,[10],Active
same,Cmax,[11],788 ng/mL
same,Activity,[12],-0.1%
same,AUCt,[13],903 ng·h/mL
same,Cmax,[14],1501 ng/mL
same,Stability,[15],Unstable
same,Drug metabolism,[16],metabolite_detected
same,Drug metabolism,[17],metabolite_detected
same,AUCt,[18],11325 ng·h/mL
same,Drug metabolism,[19],metabolite_detected
same,Activity,HepG2,Non-toxic
same,Drug metabolism,[20],metabolite_detected
same,Drug metabolism,[21],metabolite_detected
same,Drug metabolism,[22],metabolite_notdetected
